Molecules are shown by their SMILES.

What is called bioavailability is the share of a dose that reaches the circulation, judged against a reference dose that is usually intravenous. A low value points to little systemic uptake.

The conditions of series [1]: mechanically ventilated adult patients with moderate-to-severe ARDS, confirmed Covid-19 infection; cited from earlier work.
For series [2], the system named is primary HIV-1 isolated. The experiment in a line: HIV-1 replication in MT2 cell line assays. In kind it is cell-based. As for the experimental part:
The total destruction of the viral culture was observed from concentrations of 25 μg/ml of TMA's Maslinic acid, while between 5 and 20 μg/ml, a decrease in viability was observed between 57% and 19%.

Series [3] concerns murine macrophages. To be noted: cited from earlier work.
Series [4] deals with HIV-1 protease (Human immunodeficiency virus type 1 group M subtype B, UniProt P04585). To be noted: in vitro; cited from earlier work.
Series [5] can be described thus: in vivo.
The conditions of series [6]: in vivo, cited from earlier work.

For the molecule `C[C@@H]1C[C@H]2[C@@H]3CCC4=CC(=O)C=C[C@]4(C)[C@@]3(F)[C@@H](O)C[C@]2(C)[C@@]1(O)C(=O)CO` [Dexametasone], the “effectiveness, share of cases” value in series [1] is on record as 33%.

Regarding `CC1(C)CC[C@]2(C(=O)O)CC[C@]3(C)C(=CC[C@@H]4[C@@]5(C)C[C@@H](O)[C@H](O)C(C)(C)[C@@H]5CC[C@]43C)[C@@H]2C1` [Maslinic acid, 2-alfa,3-betadihydroxy-28-carboxiolean-12-eno], the “concentration giving total destruction of the viral culture” value in series [2] was ≥ 25 µg/mL. Further, in series [2] (MT2 cell line, 25 μg/ml), the cytopathic effect result is “decrease was detected” and the “level of p24 antigen in the culture supernatant” value was “decrease was detected”. Also, in series [2] (MT2 cell line, 30 μg/ml), the cytopathic effect entry was “absence total cytopathic effect” and the p24 antigen entry was “decrease in p24 antigen”. The “inhibitory effect on replication” value in series [2] (between 5 and 20 μg/ml, cultures infected with different amounts of HIV-1) is on record as “did not produce any inhibitory effect”. The pro-inflammatory cytokine generation entry in series [3] is recorded as “strong reduction”. The “activity against the enzyme isolated from the HIV-1 protease” value in series [4] was “has in vitro activity”. Moreover, in series [5], the bioavailability was 60%. For the same molecule, in series [6] (human), the bioavailability compared result is recorded as “higher than that of OA”. The “values in the biological fluids” value in series [6] is “increased in the biological fluids in a dose-dependent manner”.

As to `CC1(C)CC[C@]2(C(=O)O)CC[C@]3(C)C(=CC[C@@H]4[C@@]5(C)CC[C@H](O)C(C)(C)[C@@H]5CC[C@]43C)[C@@H]2C1` [OA, Oleanolic acid], in series [6], the “values in the biological fluids” value is recorded as “increased in the biological fluids in a dose-dependent manner”.

Source of the values: US20220008438A1 (priority 2020, published 2022).
